The numbers were not newly measured in US20110274751A1 (Sanovel Ilac Sanayi Ve Ticaret Anonim Sirketi, priority 2010, published 2011), which cites them from elsewhere.

For data set [1] the following is noted: in vivo.

Counter-ions that a name gives are not always drawn.

In the case of `COc1ccc(CN2CCNCC2)c(OC)c1OC` [Trimetazidine dihydrochloride], the solubility in water entry (water) is listed as “highly-soluble”.

Regarding `COc1ccc(CN2CCNCC2)c(OC)c1OC` [Trimetazidine, 1-(2,3,4-trimethoxybenzyl)piperazine], the solubility entry is “considerably high solubility”. For the same molecule, in data set [1], the half-life is 6 h.
